This is an account of results in patent US5039811A, “Preparation of N-(pyridinyl)-1H-indol-1-amines” (Hoechst-Roussel Pharmaceuticals Inc., priority 1990, dated 1991).

Common to all, as to format: in vivo
For assay [1], the system named is Tetrabenazine-Induced Ptosis. As to the kind of experiment: Prevention of Tetrabenazine-Induced Ptosis in Mice. To be noted: Mus musculus, read-out: Ed50 (prevention of tetrabenazine-induced ptosis). How it is done:
The antidepressant activities were evaluated in this invention on the basis of prevention of Tetrabenazine-induced ptosis in mice. The test method and results are described below.
Tetrabenazine (TBZ) induces behavioral depression with concomitant ptosis in mice similar to reserpine. Antidepressant compounds, both monoamineoxidase inhibitors and tricyclics, are known to prevent or antagonize these effects and the degree of antagonism correlates with clinical efficacy. The prevention of TBZ-induced ptosis in mice is used as a preliminary screen for possible antidepressant activity. The method used in this invention is as follows:
Male mice weighing 20 to 30 grams are used in test groups of five subjects. All compounds are dissolved or suspended with a suitable surfactant in distilled water and administered in volumes of 10 ml/kg of body weight. TBZ solution is made from the methanesulfonate salt and the concentration is adjusted to enable administration of 60 mg/kg of base by intraperitoneal (i.p.) injection.
The pretreatment time is measured from the time of dosing to observation. Therefore, when a 30-minute pretreat is utilized, drug and TBZ are given simultaneously. A control group received solvent and TBZ at intervals identical to drug group. For a primary screen, the drug is administered i.p. and a group size of five is utilized. Eight animals/group are used for a dose range.
The total score for each group of five in a primary screen will, therefore, be from 0 to 20 and these scores are used as indications of drug activity.
The vehicle control group score is used as a determinant of the validity of each test. […] The calculation of percent inhibition of ptosis is: [formula]

The test system of assay [2] is Scopolamine Induced Memory Deficit. Briefly: Dark Avoidance Assay (reversal of scopolamine induced memory deficit). To be noted: s.c., mice. How it is done:
In this assay mice are tested for their ability to remember an unpleasant stimulus for a period of 24 hours. A mouse is placed in a chamber that contains a dark compartment; a strong incandescent light drives it to the dark compartment, where an electric shock is administered through metal plates on the floor. The animal is removed from the testing apparatus and tested again, 24 hours later, for the ability to remember the electric shock.
If scopolamine, an anticholinergic that is known to cause memory impairment, is administered before an animal's initial exposure to the test chamber, the animal re-enters the dark compartment shortly after being placed in the test chamber 24 hours later.

The test system of assay [3] is 2-phenyl-1,4-benzoquinone-induced writhing. As to the kind of experiment: 2-phenyl-1,4-benzoquinone-induced writhing (PQW) test in mice. To be noted: Mus musculus, sc, read-out: ANALGESIC ACTIVITY ED50, POW. From the text:
(§1) Compounds I of the present invention are also useful as analgesic agents due to their ability to alleviate pain in mammals. […] Exptl. Biol. Med., 95, 729 (1957)] and in modified Haffner's analgesia.
(In general: In writhing tests, fewer writhes than in controls are read as antinociception.)

For assay [4], the system named is sensitivity of mice to pressure stress (artery clip on tail). Briefly: Modified Haffner's Analgesia (tail clip pressure stress). The settings on record: Mus musculus, sc, read-out: ANALGESIC ACTIVITY ED50, Modified Haffner's Analgesia.
From the text: as §1
The latter assay is used to evaluate analgesic activity by measuring drug-induced changes in the sensitivity of mice to pressure stress by placing an artery clip (21/2 inches long) on their tail. The procedure used is a modification of the test developed by Haffner, Dtsch. Med. Wschr. 55, 731 (1929), and it is described below.
Male mice (Charles River, DC-1), from 18-30 grams are used for the test. An artery clip is applied to the root of the tail of a mouse (approximately 1/2 inch from the body) to induce pain. The animals quickly respond to this noxious stimuli by biting the clip or the location of the clip. This reaction time, the interval between stimulus onset and response, is recorded in 1/10 second increments by a stop watch.
For a time response, the screening dose (25 mg/kg) is administered subcutaneously (10 ml/kg) to the animal receiving food and water ad libitum before testing. Animals receiving the compound orally are fasted 18-24 hours before drug administration. Drug to be tested is prepared with distilled water and if insoluble, one drop of a surfactant is added.
Twenty-eight animals (seven/group) are administered the drug 15, 30, 45 and 60 minutes prior to testing.
The cut-off time (CO) is determined by taking the Xav +3σ of the combined response latencies of the control mice in all time periods where Xav is the average of X and σ is the standard deviation.
Any reaction time, in subsequent drug tests, which is greater than the CO (for the same time period) therefore exceeds 99% of a normal Gaussian distribution and is called "positive response" indicative of analgesic activity. A time response indicates the period of greatest analgesic effect after dosing. The ED50 is determined at the peak time of drug activity. A minimum of three dose groups are used. ED50 's are calculated using computer analysis.

[5] abbreviates: po, male mice, TBZ 60 mg/kg i.p.
Setting [6] is: male mice, at peak time of drug activity.
Where [7] appears, read: ip, male mice, TBZ 60 mg/kg i.p.

Counter-ions that a name gives are not always drawn. Like-named read-outs stand apart in the source and are kept apart here.

In the case of `CNCCCN1c2ccccc2CCc2ccccc21` [Desipramine, reference compound], the ED50 (in general, the midpoint of the dose-response relation) in assay [1] (po) was determined as 2.3 mg/kg.
For the compound `O=C(O)/C=C\C(=O)O.c1ccc2c(c1)ccn2Nc1ccncc1` [Example 1, N-(4-Pyridinyl)-1H-indol-1-amine maleate], the results for the ED50 in assay [1] (setting [5]), in assay [3] (mice) and in assay [4] (setting [6]) were 3.3 mg/kg, 0.86 mg/kg and 5.7 mg/kg, respectively. The “% of Animals With Scopolamine Induced Memory Deficit Reversed” value in assay [2] (0.31 mg/kg body weight) amounted to 33%.
As for `CN(c1ccncc1)n1ccc2ccccc21.O=C(O)/C=C\C(=O)O` [Example 2, N-Methyl-N-(4-pyridinyl)-1H-indol-1-amine maleate], the ED50 amounted to 3.3 mg/kg in assay [1] (setting [5]), 3.2 mg/kg in assay [3] (mice) and 16.3 mg/kg in assay [4] (setting [6]). In assay [2] (0.04 mg/kg body weight), the “% of Animals With Scopolamine Induced Memory Deficit Reversed” value was determined as 53%.
Regarding `CCN(c1ccncc1)n1ccc2ccccc21.O=C(O)/C=C\C(=O)O` [Example 3, N-Ethyl-N-(4-pyridinyl)-1H-indol-1-amine maleate], the ED50 in assay [1] (setting [5]) was determined as 5.6 mg/kg. Further, in assay [2] (0.63 mg/kg body weight), the “% of Animals With Scopolamine Induced Memory Deficit Reversed” value was 33%.
`CCCN(c1ccncc1)n1ccc2ccccc21.O=C(O)/C=C\C(=O)O` [Example 4, N-Propyl-N-(4-pyridinyl)-1H-indol-1-amine maleate]: the ED50 in assay [1] (setting [5]) was found to be 5.1 mg/kg; in assay [3] (mice), 5.1 mg/kg; in assay [4] (setting [6]), 31 mg/kg. The “% of Animals With Scopolamine Induced Memory Deficit Reversed” value in assay [2] (0.08 mg/kg body weight) was found to be 27%.
For `CCCN(c1ccncc1)n1ccc2cc(OC)ccc21.O=C(O)/C=C\C(=O)O` [Example 5, 5-Methoxy-N-propyl-N-(4-pyridinyl)-1H-indol-1-amine maleate], the ED50 in assay [1] (setting [5]) was determined as 29.8 mg/kg.
For `CN(c1ccncc1)n1cc(C=O)c2ccccc21` [Example 6, N-Methyl-N-(4-pyridinyl)-1H-indol-1-amine-3-carboxaldehyde maleate], in assay [1] (setting [5]), the 50% effective dose (ED50) was 9.7 mg/kg.
On to `CCN(c1ccncc1)n1cc(C=O)c2ccccc21` [Example 7, N-Ethyl-N-(4-pyridinyl)-1H-indol-1-amine-3-carboxaldehyde maleate], for which, in assay [1] (setting [5]), the ED50 stood at 11.9 mg/kg.
With `C=Cc1cn(N(C)c2ccncc2)c2ccccc12.O=C(O)/C=C\C(=O)O` [Example 10, 3-Ethenyl-N-methyl-N-(4-pyridinyl)-1H-indol-1-amine maleate], the ED50 in assay [3] (mice) and in assay [4] (setting [6]) was 1 mg/kg throughout.
With `CCc1cn(N(C)c2ccncc2)c2ccccc12.Cl` [Example 11, 3-Ethyl-N-methyl-N-(4-pyridinyl)-1H-indol-1-amine hydrochloride], the results for the ED50 in assay [3] (mice) and in assay [4] (setting [6]) were 0.9 mg/kg and 1 mg/kg, respectively.
For `CN(c1ccncc1)n1ccc2cc([N+](=O)[O-])ccc21.O=C(O)/C=C\C(=O)O` [Example 18, N-Methyl-5-nitro-N-(4-pyridinyl)-1H-indol-1-amine maleate], the ED50 in assay [3] (mice) was found to be 1 mg/kg.
As for `Cc1cn(Nc2ccncc2)c2ccccc12.O=C(O)C(=O)O` [Example 19, 3-Methyl-N-(4-pyridinyl)-1H-indol-1-amine oxalate], the ED50 in assay [1] (setting [7]) stood at 1 mg/kg; in assay [3] (mice) it was 0.4 mg/kg; in assay [4] (setting [6]) it was 0.7 mg/kg.
On to `CCCN(c1ccncc1)n1cc(C)c2ccccc21.O=C(O)/C=C\C(=O)O` [Example 20, 3-Methyl-N-propyl-N-(4-pyridinyl)-1H-indol-1-amine maleate], for which the ED50 in assay [1] (setting [7]) worked out at 1.8 mg/kg; in assay [3] (mice), 4.1 mg/kg; in assay [4] (setting [6]), 1.4 mg/kg. Besides, in assay [2] (0.31 mg/kg body weight), the “% of Animals With Scopolamine Induced Memory Deficit Reversed” value came out at 27%.
For `CCCN(c1ccncc1F)n1cc(C)c2ccccc21.Cl` [Example 22, N-(3-Fluoro-4-pyridinyl)-N-propyl-3-methyl-1H-indol-1-amine hydrochloride], the “% of Animals With Scopolamine Induced Memory Deficit Reversed” value in assay [2] (0.31 mg/kg body weight) is 33%.
`C=CCN(c1ccncc1)n1ccc2ccccc21.O=C(O)/C=C\C(=O)O` [Example 23, N-(2-Propen-1-yl)-N-(4-pyridinyl)-1H-indol-1-amine maleate]: the ED50 is 4.2 mg/kg in assay [1] (setting [7]), 1.3 mg/kg in assay [3] (mice) and 3.8 mg/kg in assay [4] (setting [6]).
Turning to `CC(C)=CCN1CCC2(C)c3cc(O)ccc3CC1C2C` (stereo not shown) [Pentazocine, reference compound], the ED50 is 1.3 mg/kg in assay [3] and 3.9 mg/kg in assay [4].
Take `CNC(=O)Oc1ccc2c(c1)[C@]1(C)CCN(C)[C@@H]1N2C` [Physostigmine, (3aS-cis)-1,2,3,3a,8,8a-hexahydro-1,3a,8-trimethyl-pyrrolo[2,3-b]indol-5-ol, methyl carbamate, reference compound]: the “% of Animals With Scopolamine Induced Memory Deficit Reversed” value in assay [2] (0.31 mg/kg body weight) is recorded as 20%.
